The text below walks through data of patent US20130123201A1, “MODULATION OF CYTOKINE-INDUCED CHRONIC INFLAMMATORY RESPONSES” (UNIVERSITY OF MANITOBA, priority 2010, published 2013).

Entries after “also recorded” stand apart in the source; their conditions may differ.

Assay [1] relates to phospho-DAPK (Ser308). Put plainly: Immunoblot with phospho-DAPK (Ser308) antibody. The assay is classed as cell-based, human. The following applies: within 15 min, compared to un-stimulated cells. As for the experimental part: Immunoblots: Cell lysates were prepared in lysis buffer containing 20 mM Tris-HCl pH 7.5, 150 mM NaCl, 1 mM EDTA, 1 mM EGTA, 1 mM sodium fluoride, 1 mM sodium orthovanadate, 2.5 mM sodium pyrophosphate, protease inhibitor cocktail (Sigma-Aldrich) and 1% (v/v) Triton X-100. The lysates were electrophoretically resolved on a 4-12% NuPAGE® Bis-Tris gels (Invitrogen Corporation, Burlington, ON, Canda), followed by transfer to nitrocellulose membranes (Millipore, Canada). The membranes were subsequently probed with either phospho-p300 (Ser1834) polyclonal antibody, monoclonal antibody against phospho-DAPK (Ser308) or monoclonal antibody to glyceraldehyde-3-phosphate dehydrogenase (GAPDH) in TBST (20 mM Tris pH 7.5, 150 mM NaCl, 0.1% Tween 20) containing 5% skimmed milk powder. Affinity purified HRP-linked horse anti-mouse or goat anti-rabbit antibodies were used for detection as required. The membranes were development with Amersham ECL detection system (GE Healthcare, Baie d'Urfe QC, Canada) according to the manufacturer's instructions.
Immunoblots: Cell lysates were prepared in lysis buffer containing 20 mM Tris-HCl pH 7.5, 150 mM NaCl, 1 mM EDTA, 1 mM EGTA, 1 mM sodium fluoride, 1 mM sodium orthovanadate, 2.5 mM sodium pyrophosphate, protease inhibitor cocktail (Sigma-Aldrich Canada Inc.) and 1% (v/v) Triton X-100. […]
In general terms: A western blot detects proteins with antibodies after separation by electrophoresis.

For assay [2], the system named is Human fibroblast-like synovial (FLS) cells. Put plainly: ELISA of chemokine production in FLS tissue culture supernatants. The format is cell-based. As for the experimental part:
ELISA immunoassay: Tissue culture supernatants were centrifuged at 1500× g for 5-7 min to obtain cell-free samples and the aliquots were stored at −20° C. until further use. Production of chemokine Gro-α was monitored in the tissue culture supernatants by ELISA employing human Gro-α DuoSet (R&D Systems Inc.) as per the manufacturer's instructions. Production of cytokine TNF-α was monitored in the tissue culture supernatants using specific antibody pairs from eBioscience, Inc., and production of IL-8 was monitored using specific antibody pairs from R&D Systems, Inc., as per the manufacturer's instructions. The concentration of the cytokines or chemokines in the tissue culture supernatants was evaluated by establishing a standard curve with serial dilutions of the recombinant human cytokines or chemokines as required.
ELISA immunoassay: Tissue culture supernatants were centrifuged at 1500× g for 5-7 min to obtain cell-free samples and the aliquots were stored at −20° C. until further use. Production of chemokine Gro-α was monitored in the tissue culture supernatants by ELISA employing human Gro-α DuoSet (R&D Systems Inc.) per the manufacturer's instructions. […] The concentrations of the cytokines or chemokines in the tissue culture supernatants were evaluated by establishing a standard curve with serial dilutions of the recombinant human cytokines or chemokines as required.

Assay [3] relates to NF-κB in rabbit synoviocyte HIG-82 cells. Put plainly: NF-κB-reporter luminescence assay. The format is cell-based. The following applies: rabbit synovial fibroblast cell line HIG-82, 4 and 6 hr. As for the experimental part:
NF-κB-reporter luminensence assay: Rabbit synoviocyte HIG-82 cells were transiently transfected with pNFκB-MetLuc2-Reporter Vector (Clontech laboratories Inc., Mountain View, Calif., USA) or the provided control vector as per the manufacturer's instructions. Various stimulants were added to the transfected cells in culture media containing 1% (v/v) FBS. The cells were stimulated with either recombinant human IL-32 or IL-17, and in parallel with known activators of NF-κB such as pro-inflammatory recombinant human cytokines TNF-αand IL-1β, or bacterial lipopolysaccharide (LPS), for 4 or 6 hr. The activation of NF-κB was monitored by employing the Ready-To-Glow Secreted NF-κB Luciferase Reporter Assay (Clontech) as per the manufacturer's instructions.
NF-κB-reporter luminensence assay: In order to monitor direct NF-κB activation in synoviocytes, a rabbit synoviocyte cell line, HIG-82 (ATCC® CRL-1832) was transiently transfected with pNFκB-MetLuc2-Reporter Vector (Clontech laboratories Inc., Mountain View, Calif., USA) or the provided control vector as per the manufacturer's instructions. Various stimulants were added to the transfected cells in culture media containing 1% (v/v) FBS. […] The activation of NF-κB was monitored by employing the Ready-To-Glow Secreted NF-κB Luciferase Reporter Assay (Clontech Laboratories Inc.) per the manufacturer's instructions.

On to “IL-17: Recombinant human cytokine IL-17A/F from eBioscience, used as stimulant”, for which, in assay [1], the “Phosphorylation of DAPK (Ser308) by immunoblot” value is “increased phosphorylation”. Also, in assay [2], the “Chemokine Gro-α production” value is reported as “robust induction; also recorded: robust Gro-α production”. In addition, the “Effect on TNF-α-induced chemokine Gro-α production” value in assay [2] (TNF-α 10 ng/mL plus cytokine 20 ng/mL, 24 hr) was “synergistically enhanced”. Further, in assay [3], the “Activation of transcription factor NF-κB” value was “induced direct activation; also recorded: activated”.
